Measured values published in ChEMBL document CHEMBL5154706, “Synthesis of lathyrane diterpenoid nitrogen-containing heterocyclic derivatives and evaluation of their anti-inflammatory activities” (Bioorg Med Chem, 2022).
Calls of active or inactive are those of the source. The calls are words filed in the database; no cut-off is given here.

Each compound was assayed on RAW264.7 (assay: Antiinflammatory activity against mouse RAW264.7 cells assessed as inhibition of LPS-induced ROS generation at […] preincubated for 3 hrs followed by LPS stimulation and measured after 12 hrs by DCFH-DA probe based flow cytometry). Conditions: time 15.0 hrs.
Format: functional, cell-based

Compound	inhibition
CC(=O)N[C@@H](CS)C(=O)O	Active

The compounds below were run on RAW264.7 (assay: Antiinflammatory activity against mouse RAW264.7 cells assessed as inhibition of LPS-induced NO production preincubated for 3 hrs followed by LPS stimulation and measured after 24 hrs by Griess reagent based assay). Conditions: not given.
Format: functional, cell-based

Compound	IC50 [µM]
CCn1cc(C(=O)O[C@@H]2[C@H]3[C@@H](O)[C@@H](C)C[C@]3(O)C(=O)/C(C)=C/[C@@H]3[C@H](CC[C@]24CO4)C3(C)C)c(-c2ccc(Cl)cc2)n1	15.7
C=C1CC[C@H]2[C@@H](/C=C(\C)C(=O)[C@@]3(O)C[C@H](C)[C@H](O)[C@@H]3[C@H]1OC(=O)c1cn(-c3ccccc3)nc1-c1ccc(C)cc1)C2(C)C	> 20
C/C1=C\[C@@H]2[C@H](CC[C@]3(CO3)[C@H](OC(=O)c3cn(-c4ccccc4)nc3-c3ccc(C)cc3)[C@H]3[C@@H](O)[C@@H](C)C[C@]3(O)C1=O)C2(C)C	> 20
CCn1cc(C(=O)O[C@@H]2[C@H]3[C@@H](O)[C@@H](C)C[C@]3(O)C(=O)/C(C)=C/[C@@H]3[C@H](CC[C@]24CO4)C3(C)C)c(-c2ccc(C)cc2)n1	> 20
C=C1CC[C@H]2[C@@H](/C=C(\C)C(=O)[C@@]3(O)C[C@H](C)[C@H](O)[C@@H]3[C@H]1OC(=O)c1cn(-c3ccccc3)nc1-c1ccc(N(C)C)cc1)C2(C)C	> 20
C/C1=C\[C@@H]2[C@H](CC[C@]3(CO3)[C@H](OC(=O)c3cnc(NC(=O)c4ccccc4)s3)[C@H]3[C@@H](O)[C@@H](C)C[C@]3(O)C1=O)C2(C)C	10.9
C/C1=C\[C@@H]2[C@H](CC[C@]3(CO3)[C@H](OC(=O)c3cn(-c4ccccc4)nc3-c3ccc(Cl)cc3)[C@H]3[C@@H](O)[C@@H](C)C[C@]3(O)C1=O)C2(C)C	> 20
CCn1cc(C(=O)O[C@@H]2[C@H]3[C@@H](O)[C@@H](C)C[C@]3(O)C(=O)/C(C)=C/[C@@H]3[C@H](CC[C@]24CO4)C3(C)C)c(-c2ccc(F)cc2)n1	13.3
C=C1CC[C@H]2[C@@H](/C=C(\C)C(=O)[C@@]3(O)C[C@H](C)[C@H](O)[C@@H]3[C@H]1OC(=O)c1cn(-c3ccccc3)nc1-c1ccc(C(F)(F)F)cc1)C2(C)C	11.2
C/C1=C\[C@@H]2[C@H](CC[C@]3(CO3)[C@H](OC(=O)c3cn(-c4ccccc4)nc3-c3ccc(F)cc3)[C@H]3[C@@H](O)[C@@H](C)C[C@]3(O)C1=O)C2(C)C	10.6
CCn1cc(C(=O)O[C@@H]2[C@H]3[C@@H](O)[C@@H](C)C[C@]3(O)C(=O)/C(C)=C/[C@@H]3[C@H](CC[C@]24CO4)C3(C)C)c(-c2ccc(N(C)C)cc2)n1	> 20
C/C1=C\[C@@H]2[C@H](CC[C@]3(CO3)[C@H](OC(=O)CCN3C(=O)CS/C3=N\c3ccccc3)[C@H]3[C@@H](O)[C@@H](C)C[C@]3(O)C1=O)C2(C)C	> 20
C=C1CC[C@H]2[C@@H](/C=C(\C)C(=O)[C@@]3(O)C[C@H](C)[C@H](O)[C@@H]3[C@H]1OC(=O)c1cn(-c3ccccc3)nc1-c1ccc(OC)cc1)C2(C)C	> 20
C=C1CC[C@H]2[C@@H](/C=C(\C)C(=O)[C@@]3(OC(C)=O)C[C@H](C)[C@H](OC(=O)c4ccccc4)[C@@H]3[C@H]1OC(C)=O)C2(C)C	8.06
C/C1=C\[C@@H]2[C@H](CC[C@]3(CO3)[C@H](O)[C@H]3[C@@H](O)[C@@H](C)C[C@]3(O)C1=O)C2(C)C	25.6
C=C1CC[C@H]2[C@@H](/C=C(\C)C(=O)[C@@]3(O)C[C@H](C)[C@H](O)[C@@H]3[C@H]1OC(=O)c1cnc(NC(C)=O)s1)C2(C)C	> 20
CCn1cc(C(=O)O[C@@H]2[C@H]3[C@@H](O)[C@@H](C)C[C@]3(O)C(=O)/C(C)=C/[C@@H]3[C@H](CC[C@]24CO4)C3(C)C)c(-c2ccc(C(F)(F)F)cc2)n1	10.6
C=C1CC[C@H]2[C@@H](/C=C(\C)C(=O)[C@@]3(O)C[C@H](C)[C@H](O)[C@@H]3[C@H]1OC(=O)c1cn(CC)nc1-c1ccc(F)cc1)C2(C)C	> 20
CC(=O)Nc1ncc(C(=O)O[C@@H]2[C@H]3[C@@H](O)[C@@H](C)C[C@]3(O)C(=O)/C(C)=C/[C@@H]3[C@H](CC[C@]24CO4)C3(C)C)s1	> 20
C=C1CC[C@H]2[C@@H](/C=C(\C)C(=O)[C@@]3(O)C[C@H](C)[C@H](O)[C@@H]3[C@H]1OC(=O)c1cn(-c3ccccc3)nc1-c1ccc(Cl)cc1)C2(C)C	> 20
C/C1=C\[C@@H]2[C@H](CC[C@]3(CO3)[C@H](OC(=O)c3cn(-c4ccccc4)nc3-c3ccc(N(C)C)cc3)[C@H]3[C@@H](O)[C@@H](C)C[C@]3(O)C1=O)C2(C)C	> 20
C=C1CC[C@H]2[C@@H](/C=C(\C)C(=O)[C@@]3(O)C[C@H](C)[C@H](O)[C@@H]3[C@H]1O)C2(C)C	11.1
C/C1=C\[C@@H]2[C@H](CC[C@]3(CO3)[C@H](OC(=O)c3cnc(NC(=O)/C=C/c4ccccc4)s3)[C@H]3[C@@H](O)[C@@H](C)C[C@]3(O)C1=O)C2(C)C	> 20
C=C1CC[C@H]2[C@@H](/C=C(\C)C(=O)[C@@]3(O)C[C@H](C)[C@H](O)[C@@H]3[C@H]1OC(=O)c1cnc(NC(=O)/C=C/c3ccccc3)s1)C2(C)C	> 20
C=C1CC[C@H]2[C@@H](/C=C(\C)C(=O)[C@@]3(O)C[C@H](C)[C@H](O)[C@@H]3[C@H]1OC(=O)c1cn(-c3ccccc3)nc1-c1ccc(F)cc1)C2(C)C	10.8

The remaining lines, values ahead:

IC50 [µM]	Compound
9.38	C/C1=C\[C@@H]2[C@H](CC[C@]3(CO3)[C@H](OC(=O)CCC(=O)OCc3c(-c4ccccc4)no[n+]3[O-])[C@H]3[C@@H](O)[C@@H](C)C[C@]3(O)C1=O)C2(C)C
8.24	C=C1CC[C@H]2[C@@H](/C=C(\C)C(=O)[C@@]3(O)C[C@H](C)[C@H](O)[C@@H]3[C@H]1OC(=O)CCN1C(=O)CS/C1=N\c1ccccc1)C2(C)C
7.8	C=C1CC[C@H]2[C@@H](/C=C(\C)C(=O)[C@@]3(O)C[C@H](C)[C@H](O)[C@@H]3[C@H]1OC(=O)c1cn(CC)nc1-c1ccc(C(F)(F)F)cc1)C2(C)C
7.73	C=C1CC[C@H]2[C@@H](/C=C(\C)C(=O)[C@@]3(O)C[C@H](C)[C@H](O)[C@@H]3[C@H]1OC(=O)c1cn(CC)nc1-c1ccc(C)cc1)C2(C)C
7.03	C=C1CC[C@H]2[C@@H](/C=C(\C)C(=O)[C@@]3(O)C[C@H](C)[C@H](O)[C@@H]3[C@H]1OC(=O)c1cnc(NC(=O)c3ccccc3)s1)C2(C)C
5.84	C=C1CC[C@H]2[C@@H](/C=C(\C)C(=O)[C@@]3(O)C[C@H](C)[C@H](O)[C@@H]3[C@H]1OC(=O)c1cn(CC)nc1-c1ccc(Cl)cc1)C2(C)C
5.53	C=C1CC[C@H]2[C@@H](/C=C(\C)C(=O)[C@@]3(O)C[C@H](C)[C@H](O)[C@@H]3[C@H]1OC(=O)c1cnc(NC(=O)C3CCCCC3)s1)C2(C)C
5.47	C=C1CC[C@H]2[C@@H](/C=C(\C)C(=O)[C@@]3(O)C[C@H](C)[C@H](O)[C@@H]3[C@H]1OC(=O)CCC(=O)OCc1c(-c3ccccc3)no[n+]1[O-])C2(C)C
5.36	C=C1CC[C@H]2[C@@H](/C=C(\C)C(=O)[C@@]3(O)C[C@H](C)[C@H](O)[C@@H]3[C@H]1OC(=O)CCC(=O)OCc1ccc(COc3no[n+]([O-])c3S(=O)(=O)c3ccccc3)cc1)C2(C)C
3.38	C/C1=C\[C@@H]2[C@H](CC[C@]3(CO3)[C@H](OC(=O)CCC(=O)OCCOCCOc3no[n+]([O-])c3S(=O)(=O)c3ccccc3)[C@H]3[C@@H](O)[C@@H](C)C[C@]3(O)C1=O)C2(C)C
2.61	C/C1=C\[C@@H]2[C@H](CC[C@]3(CO3)[C@H](OC(=O)CCC(=O)OCc3ccc(COc4no[n+]([O-])c4S(=O)(=O)c4ccccc4)cc3)[C@H]3[C@@H](O)[C@@H](C)C[C@]3(O)C1=O)C2(C)C
1.82	C/C1=C\[C@@H]2[C@H](CC[C@]3(CO3)[C@H](OC(=O)CCC(=O)OCCCCOc3no[n+]([O-])c3S(=O)(=O)c3ccccc3)[C@H]3[C@@H](O)[C@@H](C)C[C@]3(O)C1=O)C2(C)C
1.55	C=C1CC[C@H]2[C@@H](/C=C(\C)C(=O)[C@@]3(O)C[C@H](C)[C@H](O)[C@@H]3[C@H]1OC(=O)CCC(=O)OCCCCOc1no[n+]([O-])c1S(=O)(=O)c1ccccc1)C2(C)C
1.49	C/C1=C\[C@@H]2[C@H](CC[C@]3(CO3)[C@H](OC(=O)c3cnc(NC(=O)C4CCCCC4)s3)[C@H]3[C@@H](O)[C@@H](C)C[C@]3(O)C1=O)C2(C)C
1.43	C/C1=C\[C@@H]2[C@H](CC[C@]3(CO3)[C@H](OC(=O)CCC(=O)NCCOc3no[n+]([O-])c3S(=O)(=O)c3ccccc3)[C@H]3[C@@H](O)[C@@H](C)C[C@]3(O)C1=O)C2(C)C
1.19	C=C1CC[C@H]2[C@@H](/C=C(\C)C(=O)[C@@]3(O)C[C@H](C)[C@H](O)[C@@H]3[C@H]1OC(=O)CCC(=O)NCCOc1no[n+]([O-])c1S(=O)(=O)c1ccccc1)C2(C)C
1	C/C1=C\[C@@H]2[C@H](CC[C@]3(CO3)[C@H](OC(=O)CCC(=O)OCC#CCOc3no[n+]([O-])c3S(=O)(=O)c3ccccc3)[C@H]3[C@@H](O)[C@@H](C)C[C@]3(O)C1=O)C2(C)C
0.85	C=C1CC[C@H]2[C@@H](/C=C(\C)C(=O)[C@@]3(O)C[C@H](C)[C@H](O)[C@@H]3[C@H]1OC(=O)CCC(=O)OCC#CCOc1no[n+]([O-])c1S(=O)(=O)c1ccccc1)C2(C)C
